Results taken from US8598202B2, “Aryl-hydroxyethylamino-pyrimidines and triazines as modulators of fatty acid amide hydrolase” (Janssen Pharmaceutica NV, priority 2008, dated 2013).
Structures can show the parent of a compound that is named as a salt. Where two headings read alike, the source gives them in different places.

Key:
[1] = molecular target: T1, FAAH (Homo sapiens, UniProt O00519); test: Assay Method 1: FAAH assay, 3H-anandamide hydrolysis in homogenate of T84 cells or SK-N-MC cells transfected with human FAAH
T1 sequence (O00519 1-579): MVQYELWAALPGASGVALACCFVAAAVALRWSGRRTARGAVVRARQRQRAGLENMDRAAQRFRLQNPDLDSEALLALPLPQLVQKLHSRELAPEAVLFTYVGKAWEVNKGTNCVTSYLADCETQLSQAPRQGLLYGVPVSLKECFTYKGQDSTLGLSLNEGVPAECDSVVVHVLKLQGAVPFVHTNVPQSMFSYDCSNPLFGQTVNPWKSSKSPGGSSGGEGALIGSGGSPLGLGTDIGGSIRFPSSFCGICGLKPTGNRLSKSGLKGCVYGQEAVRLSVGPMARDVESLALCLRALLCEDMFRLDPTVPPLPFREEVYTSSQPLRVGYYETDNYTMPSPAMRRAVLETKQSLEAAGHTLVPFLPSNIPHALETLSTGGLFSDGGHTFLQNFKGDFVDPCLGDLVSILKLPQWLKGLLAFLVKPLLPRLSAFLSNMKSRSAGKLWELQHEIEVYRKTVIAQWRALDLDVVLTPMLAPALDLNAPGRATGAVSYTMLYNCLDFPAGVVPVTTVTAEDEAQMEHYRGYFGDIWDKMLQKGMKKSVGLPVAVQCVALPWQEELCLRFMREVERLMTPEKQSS

[2] = molecular target: T2, Rat FAAH-1 (Rattus norvegicus, UniProt P97612); test: Assay Method 2: rat FAAH-1 assay, 3H-anandamide hydrolysis in homogenate of SK-N-MC cells transfected with rat FAAH
T2 sequence (P97612 1-579): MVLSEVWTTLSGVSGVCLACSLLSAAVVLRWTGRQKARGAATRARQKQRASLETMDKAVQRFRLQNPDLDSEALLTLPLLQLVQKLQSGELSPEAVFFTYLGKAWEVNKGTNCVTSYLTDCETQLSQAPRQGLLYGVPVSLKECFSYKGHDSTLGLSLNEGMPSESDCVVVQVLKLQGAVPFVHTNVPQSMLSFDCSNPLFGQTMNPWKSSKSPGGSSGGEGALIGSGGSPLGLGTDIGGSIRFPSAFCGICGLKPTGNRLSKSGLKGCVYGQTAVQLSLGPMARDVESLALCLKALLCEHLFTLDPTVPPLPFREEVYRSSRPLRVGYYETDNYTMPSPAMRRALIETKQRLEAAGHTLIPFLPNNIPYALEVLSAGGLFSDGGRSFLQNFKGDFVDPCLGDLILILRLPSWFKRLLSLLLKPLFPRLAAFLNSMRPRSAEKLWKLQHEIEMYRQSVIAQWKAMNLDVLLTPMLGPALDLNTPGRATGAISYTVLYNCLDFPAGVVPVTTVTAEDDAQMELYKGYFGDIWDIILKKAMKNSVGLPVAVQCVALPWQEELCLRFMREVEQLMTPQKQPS
Procedure: The assay mixture consisted of 50 μL of the cell homogenate, 10 μL of the test compound, and 40 μL of anandamide [1-^3H-ethanolamine] (^3H-AEA, Perkin-Elmer, 10.3 Ci/mmol), which was added last, for a final tracer concentration of 80 nM. The reaction mixture was incubated at rt for 1 h. During the incubation, 96-well Multiscreen filter plates (catalog number MAFCNOB50; Millipore, Bedford, Mass., USA) were loaded with 25 μL of activated charcoal (Multiscreen column loader, catalog number MACL09625, Millipore) and washed once with 100 μL of MeOH. […] After the 1 h incubation, 60 μL of the reaction mixture were transferred to the charcoal plates, which were then assembled on top of the DYNEX plates using Centrifuge Alignment Frames (catalog number MACF09604, Millipore). The unbound labeled ethanolamine was centrifuged through to the bottom plate (5 min at 2000 rpm), which was preloaded with the scintillant, as described above. The plates were sealed and left at rt for 1 h before counting on a Hewlett Packard TopCount.

[3] = read-out: Assay 1 IC50, Table 2, Comparative Examples, human FAAH
[4] = read-out: Assay 2 IC50, Table 2, Comparative Examples, rat FAAH-1

IC50 [1] [nM]	IC50 [2] [nM]	IC50 [1, 3] [nM]	IC50 [2, 4] [nM]	SMILES
3	57	–	–	CC(C)Sc1ccc(-c2cc(NC[C@H](O)c3ccccc3)ncn2)cc1 [Example 91, (1R)-2-[(6-{4-[(1-Methylethyl)sulfanyl]phenyl}pyrimidin-4-yl)amino]-1-phenylethanol trifluoroacetic acid salt]
120	15	–	–	OC(CNc1cc(-c2ccc(C(F)(F)F)c(Cl)c2)ncn1)c1cccc(OC(F)(F)F)c1 (stereo not shown) [Example 130, 2-({6-[3-Chloro-4-(trifluoromethyl)phenyl]pyrimidin-4-yl}amino)-1-[3-(trifluoromethoxy)phenyl]ethanol trifluoroacetic acid salt]
14	126	–	–	CN(C)S(=O)(=O)c1ccc(-c2cc(NC[C@H](O)c3ccccc3)ncn2)cc1 [Example 76, 4-(6-{[(2R)-2-Hydroxy-2-phenylethyl]amino}pyrimidin-4-yl)-N,N-dimethylbenzenesulfonamide]
548	82	–	–	OC(CNc1cc(-c2ccc(C(F)(F)F)c(Cl)c2)ncn1)c1ccc2c(c1)OCCCO2 (stereo not shown) [Example 204, 2-({6-[3-Chloro-4-(trifluoromethyl)phenyl]pyrimidin-4-yl}amino)-1-(3,4-dihydro-2H-1,5-benzodioxepin-7-yl)ethanol]
> 10000	> 10000	–	–	OC(CNc1cc(-c2ccc(C(F)(F)F)c(Cl)c2)ncn1)c1nc2ccccc2s1 (stereo not shown) [Example 216, 1-Benzothiazol-2-yl-2-[6-(3-chloro-4-trifluoromethyl-phenyl)-pyrimidin-4-ylamino]-ethanol]
20	20	–	–	N#Cc1cc(C(O)CNc2cc(-c3ccc(C(F)(F)F)c(Cl)c3)ncn2)ccc1F (stereo not shown) [Example 210]
24	35	–	–	O[C@@H](CNc1cc(-c2ccc3c(C(F)(F)C(F)(F)F)noc3c2)ncn1)c1ccccc1 [Example 188, (1R)-2-({6-[3-(pentafluoroethyl)-1,2-benzisoxazol-6-yl]pyrimidin-4-yl}amino)-1-phenylethanol trifluoroacetic acid salt]
920	5000	–	–	CC(C)c1nc(NC[C@H](O)c2ccccc2)cc(-c2ccc(Cl)c(Cl)c2)n1 [Example 137, (1R)-2-{[6-(3,4-Dichlorophenyl)-2-(1-methylethyl)pyrimidin-4-yl]amino}-1-phenylethanol]
132	153	–	–	O=[N+]([O-])c1ccc(-c2cc(NCC(O)c3ccccc3)ncn2)cc1 (stereo not shown) [Example 5, 2-{[6-(4-Nitrophenyl)pyrimidin-4-yl]amino}-1-phenylethanol trifluoroacetic acid salt]

Second part, the compound before the results:

SMILES	IC50 [1] [nM]	IC50 [2] [nM]	IC50 [1, 3] [nM]	IC50 [2, 4] [nM]
OC(CNc1cc(-c2ccc(C(F)(F)F)c(Cl)c2)ncn1)c1cc(-c2ccc(Cl)c(Cl)c2)no1 (stereo not shown) [Example 213, 2-[6-(3-Chloro-4-trifluoromethyl-phenyl)-pyrimidin-4-ylamino]-1-[3-(3,4-dichloro-phenyl)-isoxazol-5-yl]-ethanol]	22	400	–	–
O[C@@H](CNc1cc(-c2ccc3c(C(F)(F)F)noc3c2)ncn1)c1ccc(F)cc1 [Example 177, (1R)-1-(4-Fluorophenyl)-2-({6-[3-(trifluoromethyl)-1,2-benzisoxazol-6-yl]pyrimidin-4-yl}amino)ethanol trifluoroacetic acid salt]	3	3	–	–
CSc1cccc(-c2cc(NC[C@H](O)c3ccccc3)ncn2)c1 [Example 84, (1R)-2-({6-[3-(Methylsulfanyl)phenyl]pyrimidin-4-yl}amino)-1-phenylethanol trifluoroacetic acid salt]	44	965	–	–
OC(CNc1cc(-c2ccc(OC(F)(F)F)cc2)ncn1)c1ccc(F)cc1 (stereo not shown) [Example 113, 1-(4-Fluorophenyl)-2-[(6-{4-[(trifluoromethyl)oxy]phenyl}pyrimidin-4-yl)amino]ethanol]	18	41	–	–
O=[N+]([O-])c1cccc(-c2cc(NCC(O)c3ccccc3)ncn2)c1 (stereo not shown) [Example 234, 2-[6-(3-Nitro-phenyl)-pyrimidin-4-ylamino]-1-phenyl-ethanol]	> 10000	> 10000	–	–
O[C@@H](CNc1cc(-c2ccc(Cl)c(Cl)c2)nc(C2CC2)n1)c1ccccc1 [Example 136, (1R)-2-{[2-Cyclopropyl-6-(3,4-dichlorophenyl)pyrimidin-4-yl]amino}-1-phenylethanol]	84	340	–	–
OC(CNc1cc(-c2ccsc2)ncn1)c1ccccc1 (stereo not shown) [Example 245, 1-Phenyl-2-(6-thiophen-3-yl-pyrimidin-4-ylamino)-ethanol]	> 10000	> 10000	–	–
O[C@@H](CNc1cc(-c2ccc(OC(F)(F)F)c(Cl)c2)ncn1)c1ccccc1 [Example 181, (1R)-2-({6-[3-Chloro-4-(trifluoromethoxy)phenyl]pyrimidin-4-yl}amino)-1-phenylethanol]	7	20	–	–
COc1cc(C(O)CNc2cc(-c3ccc(OC(F)(F)F)cc3)ncn2)ccc1O (stereo not shown) [Example 112, 4-{1-Hydroxy-2-[(6-{4-[(trifluoromethyl)oxy]phenyl}pyrimidin-4-yl)amino]ethyl}-2-(methyloxy)phenol]	524	760	–	–
O[C@@H](CNc1cc(-c2ccc(C(F)(F)F)c(Cl)c2)ncn1)c1ccc(Cl)c(F)c1 [Example 146, (1R)-1-(4-Chloro-3-fluoro-phenyl)-2-[6-(3-chloro-4-trifluoromethyl-Phenyl)-pyrimidin-4-ylamino]-ethanol]	26	4	–	–
Oc1ccc(-c2cc(NCC(O)c3ccccc3)ncn2)cc1 (stereo not shown) [CE6, 4-[6-(2-Hydroxy-2-phenyl-ethylamino)-pyrimidin-4-yl]-phenol, reference compound]	–	–	7000	> 10000
O=Cc1ccc(-c2cc(NC[C@H](O)c3ccccc3)ncn2)cc1 [Example 22, 4-(6-{[(2R)-2-Hydroxy-2-phenylethyl]amino}pyrimidin-4-yl)benzaldehyde]	81	270	–	–
O[C@@H](CNc1cc(-c2cccc(C(F)(C(F)(F)F)C(F)(F)F)c2)ncn1)c1ccccc1 [Example 220, (1R)-Phenyl-2-{6-[3-(1,2,2,2-tetrafluoro-1-trifluoromethyl-ethyl)-phenyl]-Pyrimidin-4-ylamino}-ethanol]	42	690	–	–
N#Cc1cc(-c2cc(NC[C@H](O)c3ccccc3)ncn2)ccc1F [Example 89, 2-Fluoro-5-(6-{[(2R)-2-hydroxy-2-phenylethyl]amino}pyrimidin-4-yl)benzonitrile trifluoroacetic acid salt]	1600	1400	–	–
OC(CNc1cc(-c2cccs2)ncn1)c1ccccc1 (stereo not shown) [Example 244, 1-Phenyl-2-(6-thiophen-2-yl-pyrimidin-4-ylamino)-ethanol]	> 10000	> 10000	–	–
OC(CNc1cc(-c2ccc(C(F)(F)F)c(Cl)c2)ncn1)c1cc(-c2ccc(Cl)cc2Cl)no1 (stereo not shown) [Example 215, 2-[6-(3-Chloro-4-trifluoromethyl-phenyl)-pyrimidin-4-ylamino]-1-[3-(2,4-dichloro-phenyl)-isoxazol-5-yl]-ethanol]	240	1000	–	–
O[C@@H](CNc1cc(-c2ccc3c(C(F)(F)F)noc3c2)ncn1)c1ccccc1 [Example 182, (1R)-1-Phenyl-2-({6-[3-(trifluoromethyl)-1,2-benzisoxazol-6-yl]pyrimidin-4-yl}amino)ethanol]	10	4	–	–
OC(CNc1cc(-c2ccsc2)ncn1)c1ccccc1 (stereo not shown) [CE7, 1-Phenyl-2-(6-thiophen-3-yl-pyrimidin-4-ylamino)-ethanol, reference compound]	–	–	> 10000	> 10000
CCCOc1ccc(-c2cc(NC[C@H](O)c3ccccc3)ncn2)cc1F [Example 35, (1R)-2-{[6-(3-Fluoro-4-propoxyphenyl)pyrimidin-4-yl]amino}-1-Phenylethanol trifluoroacetic acid salt]	43	180	–	–
CCCCOc1ccc(-c2cc(NC[C@H](O)c3ccccc3)ncn2)cc1F [Example 33, (1R)-2-{[6-(4-Butoxy-3-fluorophenyl)pyrimidin-4-yl]amino}-1-phenylethanol trifluoroacetic acid salt]	270	2000	–	–
